Test results: PubChem BioAssay (NCI)
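1) Cells in 96-well plates. 2) Compound, 48 h, 5 concentrations. 3) Linear interpolation between surrounding doses. 4) Unreached endpoint = highest concentration. The concentration for full growth arrest is given as TGI.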

Assays:
Assay in all cases: NCI-60 cell line screen, 48 h
BT-549 breast = test system: BT-549 breast
COLO 205 colon = test system: COLO 205 colon
HCT-15 colon = test system: HCT-15 colon
MALME-3M melanoma = test system: MALME-3M melanoma
MDA-MB-435 = test system: MDA-MB-435
MDA-N = test system: MDA-N
NCI-H23 lung = test system: NCI-H23 lung
NCI-H522 lung = test system: NCI-H522 lung
SF-295 CNS = test system: SF-295 CNS
SN12C renal = test system: SN12C renal
UO-31 renal = test system: UO-31 renal
RXF 393 renal = test system: RXF 393 renal
SNB-75 CNS = test system: SNB-75 CNS

Structure (SMILES) | TGI (BT-549 breast) [µM] | TGI (COLO 205 colon) [µM] | TGI (HCT-15 colon) [µM] | TGI (MALME-3M melanoma) [µM] | TGI (MDA-MB-435) [µM] | TGI (MDA-N) [µM] | TGI (NCI-H23 lung) [µM] | TGI (NCI-H522 lung) [µM] | TGI (SF-295 CNS) [µM] | TGI (SN12C renal) [µM] | TGI (UO-31 renal) [µM] | TGI (RXF 393 renal) [µM] | TGI (SNB-75 CNS) [µM]
CC(=O)Oc1ccc2cc(-c3ccc(OC(C)=O)c(OC(C)=O)c3)c(=O)oc2c1 | > 100 | > 100 | > 100 | > 100 | > 100 | > 100 | > 100 | > 100 | > 100 | > 100 | > 100 |  | 
CC(C(=O)n1ccnc1)N1c2ccccc2Sc2ccccc21 (stereo not drawn) | > 100 | > 100 | > 100 | > 100 | > 100 | > 100 | > 100 |  | > 100 | > 100 | > 100 | > 100 | > 100
CCOC(=O)C(NC(=O)CC)(Nc1ccc(F)cc1F)C(F)(F)F (stereo not drawn) | > 100 | > 100 | > 100 |  | > 100 | > 100 | > 100 |  |  | > 100 | > 100 | > 100 | > 100
Nc1cc(Cl)ccc1SSc1ccc(Cl)cc1N | 35.1 | 35.9 | 8.8 | 36.3 | 25.9 |  | 20.4 | 23.8 | 25.6 | 28.7 | 22.1 | > 100 | 37.6
CC1=CC(=O)N(n2c(-c3ccccc3)n[nH]c2=O)C1=O | > 100 | > 100 | > 100 | > 100 | > 100 |  | > 100 | > 100 | > 100 | > 100 | > 100 | > 100 | > 100
NC(=O)Cn1c(=O)oc2cc(C(=O)CN3CCOCC3)ccc21 |  | > 100 |  | > 100 | > 100 | > 100 |  |  | > 100 | > 100 |  | > 100 | > 100
CC1=CC(=O)N(n2c(Cc3ccc(Cl)cc3)n[nH]c2=O)C1=O | > 100 | > 100 | > 100 | > 100 | > 100 | > 100 | > 100 | 35.7 | > 100 | > 100 | > 100 | 53.1 | 
Cc1ccccc1Nc1nc(NNC(=O)Cc2ccccc2)nc(NNC(=O)c2ccncc2)n1 | > 10 | > 10 | > 10 | > 10 |  | > 10 |  |  |  | > 10 | > 10 |  | > 10
O=S(=O)(c1cc(Cl)ccc1Cl)N1CCN(c2cccc(Cl)c2)CC1 | > 100 |  | > 100 | > 100 |  | > 100 | > 100 | > 100 | > 100 | > 100 | > 100 | > 100 | > 100
CCC1CCC2c3c([nH]c4ccc(C)cc34)C3C(=O)N(N(C)C)C(=O)C3C2C1 (stereo not drawn) | > 100 | > 100 | > 100 | 39.2 | > 33.4 | 4.52 | > 100 | 2.68 | > 33.4 | > 100 | > 100 | 57.7 | 
COc1ccc(-c2nc3c(C(=O)NCCN(C)C)cccc3c3ccccc23)cc1 | 22.3 | 4.51 | 9.46 | 8.7 | 5.16 | 5.45 | 19.6 | 8.82 | 4.83 | 16.9 | 5.16 |  | 17.6
CCCCC1(O)CC2CC1C(C)C2(C)C (stereo not drawn) | > 100 | > 100 | > 100 | > 100 | > 100 | > 100 | > 100 |  | > 100 | > 100 | > 100 | > 100 | > 100
CN1CC2=C(NC(=S)NC2c2ccccc2Cl)/C(=C/c2ccccc2Cl)C1 (stereo not drawn) |  | 60.4 | > 100 | 74.4 | > 100 | > 100 | > 100 | > 100 | > 100 | > 100 | 93.1 | > 100 | 23.8
COc1cc(C2c3cc4c(cc3OC(NCCO)C2C)OCO4)cc(OC)c1O (stereo not drawn) | > 100 | 84.2 | 46.9 | > 100 | 6.34 | 4.56 | > 100 |  | > 100 | > 100 | > 100 | > 100 | 77.3
CC(C)(C)[Si](C)(C)OCC1OC(n2ccc(=O)[nH]c2=O)C(O[Si](C)(C)C(C)(C)C)[C@]12O[C@@H]2CO (stereo partly drawn) | 19.4 | 42.9 | 31.1 |  | 35.3 | 59 | 30.2 | 29.7 | 23.7 | 36.3 | 21.7 |  | 40.4
O=[N+]([O-])C(/C=C(\Cl)[N+](=O)[O-])=C(N1CCCCC1)N1CCCCC1 |  | 55.5 | 68 | 21.4 | 30.6 | 41 | > 100 | > 100 | > 100 | > 100 | 75.7 | > 100 | 
C=CC1(c2ccc3ccccc3c2)OCC(CC)O1 (stereo not drawn) |  | > 100 | > 100 | 93.2 | > 100 | > 100 | 96.2 | > 100 | > 100 | > 100 | > 100 | > 100 | > 100
O=c1[nH]c(=O)n(CCOc2ccc(Cl)cc2)cc1Nc1ccccc1 |  | > 100 | > 100 |  | > 100 | > 100 | > 100 |  | > 100 | > 100 | > 100 | > 100 | 
O=C1CC2CC(CC3(CO3)C2)C1F (stereo not drawn) |  | > 100 | > 100 | > 100 | > 100 | > 100 | > 100 | > 100 | > 100 | > 100 | > 100 | > 100 | > 100

Structure (SMILES) | TGI (BT-549 breast) [µM] | TGI (COLO 205 colon) [µM] | TGI (HCT-15 colon) [µM] | TGI (MALME-3M melanoma) [µM] | TGI (MDA-MB-435) [µM] | TGI (MDA-N) [µM] | TGI (NCI-H23 lung) [µM] | TGI (NCI-H522 lung) [µM] | TGI (SF-295 CNS) [µM] | TGI (SN12C renal) [µM] | TGI (UO-31 renal) [µM] | TGI (RXF 393 renal) [µM] | TGI (SNB-75 CNS) [µM]
CC1=N[C@@](C)(C2CC3C=CC2C3=O)COC1=O (stereo partly drawn) | > 100 | > 100 |  | > 100 | > 100 | > 100 | > 100 | > 100 | > 100 | > 100 | > 100 | > 100 | > 100
CCOC(=O)C1SC(=Nc2ccc(Cl)cc2Cl)N=C1C (stereo not drawn) |  | > 100 | > 100 | > 100 |  |  | > 100 | > 100 | > 100 | > 100 | > 100 | > 100 | 82
CCOC(=O)C1(N)CC1 |  |  | > 100 | > 100 | > 100 | > 100 | > 100 | > 100 | > 100 | > 100 | > 100 | > 100 | > 100
Cc1ccc(C(=O)Oc2ccc(/C=C3\CCC/C(=C\c4ccc(OC(=O)c5ccc(C)cc5)cc4)C3=O)cc2)cc1 | > 100 | > 100 | > 100 |  | > 100 | > 100 | > 100 | > 100 | > 100 | > 100 | > 100 |  | > 100
COc1cc(C2OC[C@@H]3C(=O)OC[C@H]23)cc(O)c1OC (stereo partly drawn) | > 100 | > 100 | > 100 |  | > 100 | > 100 | > 100 | > 100 | > 100 | > 100 | > 100 | > 100 | > 100
COC(=O)[C@]12CSC[C@H]1C[C@H](c1cccc3ccccc13)N2 | > 100 | > 100 | > 100 |  | > 100 | > 100 | > 100 |  | > 100 | > 100 | > 100 |  | > 100
CCCC(=O)OC[n+]1ccc(-c2c(COC(=O)NC(C)C)c(COC(=O)NC(C)C)c3n2CCC3)cc1 | > 100 | > 100 | > 100 | > 100 | > 100 |  | > 100 | > 100 | > 100 | > 100 | > 100 | > 100 | > 100
O=C1[C@@H](O)[C@@H]2CCCC[C@@]23CCCN13 |  | > 100 | > 100 | > 100 | > 100 | > 100 | > 100 | > 100 | > 100 | > 100 | > 100 | > 100 | > 100
CC(C)c1ccc(/C=C/c2cc(C(=O)NNC(=O)NC3CCCCC3)nc(=S)[nH]2)cc1 |  | > 100 | > 100 | > 100 |  |  | > 100 | > 100 | > 100 | > 100 | > 100 | > 100 | > 100
O=C(NCCCN(CCCCN(CCCNC(=O)c1cc(S(=O)(=O)O)cc(O)c1O)C(=O)c1cc(S(=O)(=O)O)cc(O)c1O)C(=O)c1cc(S(=O)(=O)O)cc(O)c1O)c1cc(S(=O)(=O)O)cc(O)c1O | > 100 | > 100 | > 100 | > 100 | > 100 | > 100 | > 100 | > 100 |  | > 100 | > 100 |  | > 100
COc1ccc2c(c1OC)C(=O)N/C2=C\c1c(CCN(C)C)cc2c(c1OC)OCO2 | > 100 | > 100 | > 100 | > 100 | > 100 | > 100 | > 100 | > 100 | > 100 | > 100 |  | 84.1 | > 100
C#CCOCn1cc(C)c(=O)[nH]c1=O |  | > 100 | > 100 | > 100 |  | > 100 | > 100 |  | > 100 | > 100 | > 100 |  | > 100
O=C(CN=C(CN(c1ccccc1)c1ccccc1)Oc1ccc(Cl)cc1Cl)n1ccnc1 | > 100 | > 100 | > 100 | > 100 | > 100 | > 100 | > 100 |  | > 100 | > 100 | > 100 | > 100 | > 100
CCOc1cccc(-c2cc(=O)c3cc4c(cc3[nH]2)OCO4)c1 | > 100 |  | 0.52 | > 75.1 | 0.0528 | > 100 | > 100 | 0.684 | 0.329 | 5.38 | 35.2 | 1.82 | 36.1
CC(=O)n1[nH]c(=O)n(-c2ccccc2)c1=O | > 100 | > 100 | > 100 | > 100 | > 100 | > 100 | > 100 | > 100 | > 100 | > 100 | > 100 | > 100 | 
C=CCCCC1(C)CCNC1=S (stereo not drawn) | > 100 | > 100 | > 100 |  | > 100 | > 100 | > 100 | > 100 | > 100 | > 100 | > 100 | > 100 | > 100
Cc1cc(C)nc(NS(=O)(=O)c2ccc(NC(=O)NC(F)(F)F)cc2)n1 | > 100 | > 100 | > 100 |  | > 100 | > 100 | > 100 |  |  | > 100 | > 100 | > 100 | > 100
O=C1C(c2ccccc2)=C(c2ccccc2)C(c2ccc(Sc3ccc(C4=C(c5ccccc5)C(=O)C(c5ccccc5)=C4c4ccccc4)cc3)cc2)=C1c1ccccc1 |  | > 100 | > 100 | > 100 |  |  | > 100 | > 100 | > 100 | > 100 | > 100 | > 100 | 76.5
CC(C)(C)n1c(=O)n2n(c1=O)C1c3cccc4cccc(c34)C2C2c3cccc4cccc(c34)C1n1c(=O)n(C(C)(C)C)c(=O)n12 | > 100 | > 100 | > 100 | > 100 | > 100 | > 100 | > 100 | > 100 | > 100 | > 100 | > 100 |  | > 100
